Data published in the NIST ThermoML archive (doi:10.1016/j.jct.2014.03.021).
Numbers after ± are expanded uncertainties.

Test: xn = mol fraction of the nth substance listed
Conditions: 101 kPa, Liquid; for speed of sound: Frequency=3 MHz, Sing-around technique in a fixed-path interferometer; for mass density: Vibrating tube method; for electrical conductivity: Alternating current cell with electrodes

C[C@H](O)C(=O)[O-].C[N+](C)(C)CCO + O
Conditions | electrical conductivity [S/m] | mass density [kg/m3] | speed of sound [m/s]
308.15 K, x1 = 0.0258 | – | 1030.91 ± 0.41 | –
308.15 K, x1 = 0.0511 | – | 1055.74 ± 0.39 | –
308.15 K, x1 = 0.074 | – | 1074.99 ± 0.3 | –
308.15 K, x1 = 0.1027 | – | 1089.55 ± 0.24 | –
308.15 K, x1 = 0.1443 | – | 1102.31 ± 0.28 | –
308.15 K, x1 = 0.1965 | – | 1113.02 ± 0.4 | –
308.15 K, x1 = 0.2705 | – | 1122.29 ± 0.65 | –
308.15 K, x1 = 0.2957 | – | 1124.2 ± 0.74 | –
308.15 K, x1 = 0.3897 | – | 1129.04 ± 1.2 | –
308.15 K, x1 = 0.5347 | – | 1131.34 ± 2.1 | –
308.15 K, x1 = 0.6044 | – | 1132.01 ± 2.6 | –
308.15 K, x1 = 0.6931 | – | 1131.57 ± 3.4 | 1899 ± 3.8
308.15 K, x1 = 0.7565 | – | 1132.02 ± 4 | 1896.1 ± 4
308.15 K, x1 = 0.8375 | – | 1132.67 ± 4.9 | 1895.2 ± 4.4
308.15 K, x1 = 0.8996 | – | 1133.39 ± 5.7 | 1894 ± 4.7
308.15 K, x1 = 0.94 | – | 1133.76 ± 6.2 | 1890.3 ± 4.9
308.15 K, x1 = 0.9611 | – | 1133.93 ± 6.5 | 1886.6 ± 5
313.15 K, x1 = 0.0258 | 4.38 ± 0.26 | 1028.62 ± 0.41 | 1673.4 ± 2
313.15 K, x1 = 0.0511 | 4.67 ± 0.28 | 1053.12 ± 0.39 | 1772.3 ± 1.9
313.15 K, x1 = 0.074 | 4.09 ± 0.25 | 1072.09 ± 0.3 | 1843.8 ± 1.6
313.15 K, x1 = 0.1027 | 3.31 ± 0.2 | 1086.48 ± 0.24 | 1890.1 ± 1.5
313.15 K, x1 = 0.1443 | – | 1099.08 ± 0.28 | 1927.4 ± 1.6
313.15 K, x1 = 0.1965 | 1.65 ± 0.099 | 1109.75 ± 0.4 | 1935.7 ± 1.7
313.15 K, x1 = 0.2705 | – | 1118.95 ± 0.64 | 1932.5 ± 2
313.15 K, x1 = 0.2957 | 0.735 ± 0.044 | 1120.95 ± 0.74 | 1931.4 ± 2.1
313.15 K, x1 = 0.3897 | – | 1125.94 ± 1.2 | 1919.3 ± 2.4
313.15 K, x1 = 0.5347 | 0.234 ± 0.014 | 1128.21 ± 2.1 | 1901 ± 3
313.15 K, x1 = 0.6044 | 0.169 ± 0.01 | 1128.91 ± 2.6 | 1896.5 ± 3.4
313.15 K, x1 = 0.6931 | 0.103 ± 0.006 | 1128.31 ± 3.4 | 1885.6 ± 3.8
313.15 K, x1 = 0.7565 | – | 1128.77 ± 4 | 1883 ± 4
313.15 K, x1 = 0.798 | 0.069 ± 0.004 | – | –
313.15 K, x1 = 0.8375 | – | 1129.44 ± 4.9 | 1882.1 ± 4.4
313.15 K, x1 = 0.8996 | 0.071 ± 0.004 | 1130.23 ± 5.6 | 1880.5 ± 4.7
313.15 K, x1 = 0.94 | – | 1130.63 ± 6.1 | 1876.1 ± 4.9
313.15 K, x1 = 0.9611 | – | 1130.81 ± 6.4 | 1872 ± 5
318.15 K, x1 = 0.0258 | 4.99 ± 0.3 | 1026.22 ± 0.4 | 1674 ± 2
318.15 K, x1 = 0.0511 | 5.07 ± 0.3 | 1050.42 ± 0.38 | 1768.1 ± 1.9
318.15 K, x1 = 0.074 | 4.55 ± 0.27 | 1069.15 ± 0.29 | 1835.9 ± 1.6
318.15 K, x1 = 0.1027 | 3.83 ± 0.23 | 1083.38 ± 0.24 | 1879.8 ± 1.5
318.15 K, x1 = 0.1443 | – | 1095.34 ± 0.28 | 1914.8 ± 1.6
318.15 K, x1 = 0.1965 | 1.92 ± 0.12 | 1106.48 ± 0.4 | 1922.8 ± 1.7
318.15 K, x1 = 0.2705 | – | 1115.26 ± 0.64 | 1919.8 ± 2
318.15 K, x1 = 0.2957 | 0.898 ± 0.054 | 1117.03 ± 0.73 | 1918.3 ± 2.1
318.15 K, x1 = 0.3897 | – | 1122.53 ± 1.2 | 1906.8 ± 2.4
318.15 K, x1 = 0.5347 | 0.262 ± 0.016 | 1125.08 ± 2.1 | 1888 ± 3
318.15 K, x1 = 0.6044 | 0.197 ± 0.012 | 1125.81 ± 2.6 | 1883.5 ± 3.4
318.15 K, x1 = 0.6931 | 0.118 ± 0.007 | 1125 ± 3.4 | 1872.5 ± 3.8
318.15 K, x1 = 0.7565 | – | 1125.55 ± 4 | 1870.1 ± 4
318.15 K, x1 = 0.798 | 0.103 ± 0.006 | – | –
318.15 K, x1 = 0.8375 | – | 1126.28 ± 4.8 | 1869.1 ± 4.4
318.15 K, x1 = 0.8996 | 0.084 ± 0.005 | 1127.07 ± 5.6 | 1867.3 ± 4.7
318.15 K, x1 = 0.94 | – | 1127.56 ± 6.1 | 1862.4 ± 4.9
318.15 K, x1 = 0.9611 | – | 1127.75 ± 6.4 | 1858 ± 5
323.15 K, x1 = 0.0258 | 5.23 ± 0.31 | 1023.68 ± 0.4 | 1673.8 ± 1.9
323.15 K, x1 = 0.0511 | 5.47 ± 0.33 | 1047.63 ± 0.38 | 1763.2 ± 1.9
323.15 K, x1 = 0.074 | 5.09 ± 0.31 | 1066.16 ± 0.29 | 1827.6 ± 1.6
323.15 K, x1 = 0.1027 | 4.26 ± 0.26 | 1080.24 ± 0.24 | 1869.2 ± 1.5
323.15 K, x1 = 0.1443 | – | 1092.47 ± 0.27 | 1907 ± 1.6
323.15 K, x1 = 0.1965 | 2.18 ± 0.13 | 1103.2 ± 0.39 | 1910 ± 1.7
323.15 K, x1 = 0.2705 | – | 1112.52 ± 0.63 | 1911.6 ± 2
323.15 K, x1 = 0.2957 | 1.01 ± 0.061 | 1114.46 ± 0.73 | 1905.2 ± 2.1
323.15 K, x1 = 0.3897 | – | 1119.8 ± 1.2 | 1898.7 ± 2.4
323.15 K, x1 = 0.5347 | 0.318 ± 0.019 | 1121.95 ± 2.1 | 1875 ± 3
323.15 K, x1 = 0.6044 | 0.235 ± 0.014 | 1122.71 ± 2.6 | 1870.6 ± 3.4
323.15 K, x1 = 0.6931 | 0.151 ± 0.009 | 1121.7 ± 3.3 | 1859.6 ± 3.8
323.15 K, x1 = 0.7565 | – | 1122.21 ± 3.9 | 1863 ± 4
323.15 K, x1 = 0.798 | 0.134 ± 0.008 | – | –
323.15 K, x1 = 0.8375 | – | 1123.02 ± 4.8 | 1861.8 ± 4.4
323.15 K, x1 = 0.8996 | 0.144 ± 0.009 | 1123.98 ± 5.6 | 1854.4 ± 4.7
323.15 K, x1 = 0.94 | – | 1124.48 ± 6.1 | 1854.3 ± 4.9
323.15 K, x1 = 0.9611 | – | 1124.69 ± 6.3 | 1849.7 ± 5
